{"source": "PubChem BioAssay (NCI)", "assay_in_all_cases": "growth of human tumour cells (NCI), 48 h", "key": {"XF 498 CNS": {"system": "XF 498 CNS"}, "RXF-631 renal": {"system": "RXF-631 renal"}, "M19-MEL melanoma": {"system": "M19-MEL melanoma"}, "DLD-1 colon": {"system": "DLD-1 colon"}, "HOP-18 NSCLC": {"system": "HOP-18 NSCLC"}, "KM20L2 colon": {"system": "KM20L2 colon"}}, "note": "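48-hour exposure; five concentrations; linearly interpolated endpoints. At the TGI there is no net growth.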"}
{"smiles": "COC(=O)C1C(=O)N(CCc2c[nH]c3ccccc23)C[C@@H]2CCC(=O)C[C@H]12", "note": "(stereo partly specified)", "values": [{"measurement": "TGI", "setting": "XF 498 CNS", "value": "> 100", "unit": "µM"}, {"measurement": "TGI", "setting": "RXF-631 renal", "value": "> 100", "unit": "µM"}, {"measurement": "TGI", "setting": "M19-MEL melanoma", "value": "> 100", "unit": "µM"}, {"measurement": "TGI", "setting": "DLD-1 colon", "value": "> 100", "unit": "µM"}]}
{"smiles": "C[C@]12C/C(=C/O)C(=O)C(O)=C1CC[C@@H]1C2CC[C@@]2(C)C1CC[C@@H]2O", "note": "(stereo partly specified)", "values": [{"measurement": "TGI", "setting": "HOP-18 NSCLC", "value": "> 100", "unit": "µM"}, {"measurement": "TGI", "setting": "XF 498 CNS", "value": 33, "unit": "µM"}, {"measurement": "TGI", "setting": "RXF-631 renal", "value": 48.8, "unit": "µM"}, {"measurement": "TGI", "setting": "M19-MEL melanoma", "value": 45.3, "unit": "µM"}, {"measurement": "TGI", "setting": "KM20L2 colon", "value": 54.6, "unit": "µM"}]}
{"smiles": "Cc1ccccc1/C=C/C(=O)c1ccccc1", "values": [{"measurement": "TGI", "setting": "XF 498 CNS", "value": 30.8, "unit": "µM"}, {"measurement": "TGI", "setting": "RXF-631 renal", "value": 42.5, "unit": "µM"}, {"measurement": "TGI", "setting": "M19-MEL melanoma", "value": 61, "unit": "µM"}, {"measurement": "TGI", "setting": "DLD-1 colon", "value": 54.9, "unit": "µM"}, {"measurement": "TGI", "setting": "KM20L2 colon", "value": 33.6, "unit": "µM"}]}
{"smiles": "C=C1C2Oc3ccccc3C1N(c1ccccc1)O2", "note": "(stereo unspecified)", "values": [{"measurement": "TGI", "setting": "XF 498 CNS", "value": 43.5, "unit": "µM"}, {"measurement": "TGI", "setting": "RXF-631 renal", "value": 45.6, "unit": "µM"}, {"measurement": "TGI", "setting": "M19-MEL melanoma", "value": "> 100", "unit": "µM"}, {"measurement": "TGI", "setting": "DLD-1 colon", "value": "> 100", "unit": "µM"}, {"measurement": "TGI", "setting": "KM20L2 colon", "value": "> 100", "unit": "µM"}]}
{"smiles": "CC(C)(C)OC(=O)NC1CCCC1=O", "note": "(stereo unspecified)", "values": [{"measurement": "TGI", "setting": "XF 498 CNS", "value": "> 100", "unit": "µM"}, {"measurement": "TGI", "setting": "RXF-631 renal", "value": "> 100", "unit": "µM"}, {"measurement": "TGI", "setting": "M19-MEL melanoma", "value": "> 100", "unit": "µM"}, {"measurement": "TGI", "setting": "DLD-1 colon", "value": "> 100", "unit": "µM"}, {"measurement": "TGI", "setting": "KM20L2 colon", "value": "> 100", "unit": "µM"}]}
{"smiles": "O=S1CSSC1", "values": [{"measurement": "TGI", "setting": "HOP-18 NSCLC", "value": "> 100", "unit": "µM"}, {"measurement": "TGI", "setting": "XF 498 CNS", "value": 50.1, "unit": "µM"}, {"measurement": "TGI", "setting": "RXF-631 renal", "value": 29.8, "unit": "µM"}, {"measurement": "TGI", "setting": "M19-MEL melanoma", "value": 14.4, "unit": "µM"}, {"measurement": "TGI", "setting": "DLD-1 colon", "value": 43.1, "unit": "µM"}, {"measurement": "TGI", "setting": "KM20L2 colon", "value": 52.5, "unit": "µM"}]}
{"smiles": "Cc1cccc(N(CC(=O)O)S(=O)(=O)c2ccccc2)c1", "values": [{"measurement": "TGI", "setting": "HOP-18 NSCLC", "value": "> 100", "unit": "µM"}, {"measurement": "TGI", "setting": "XF 498 CNS", "value": "> 100", "unit": "µM"}, {"measurement": "TGI", "setting": "RXF-631 renal", "value": "> 100", "unit": "µM"}, {"measurement": "TGI", "setting": "M19-MEL melanoma", "value": "> 100", "unit": "µM"}, {"measurement": "TGI", "setting": "DLD-1 colon", "value": "> 100", "unit": "µM"}, {"measurement": "TGI", "setting": "KM20L2 colon", "value": "> 100", "unit": "µM"}]}
{"smiles": "C=CCNC(=O)N(CCC)CCCC(NC(C)=O)C(=O)NCc1ccccc1", "note": "(stereo unspecified)", "values": [{"measurement": "TGI", "setting": "HOP-18 NSCLC", "value": "> 100", "unit": "µM"}, {"measurement": "TGI", "setting": "XF 498 CNS", "value": "> 100", "unit": "µM"}, {"measurement": "TGI", "setting": "RXF-631 renal", "value": "> 100", "unit": "µM"}, {"measurement": "TGI", "setting": "M19-MEL melanoma", "value": "> 100", "unit": "µM"}, {"measurement": "TGI", "setting": "KM20L2 colon", "value": "> 100", "unit": "µM"}]}
{"smiles": "CC1(O)CCn2c(=O)c3cc4ccccc4cc3c(=O)n2C1O", "note": "(stereo unspecified)", "values": [{"measurement": "TGI", "setting": "HOP-18 NSCLC", "value": "> 100", "unit": "µM"}, {"measurement": "TGI", "setting": "RXF-631 renal", "value": "> 100", "unit": "µM"}, {"measurement": "TGI", "setting": "M19-MEL melanoma", "value": "> 100", "unit": "µM"}, {"measurement": "TGI", "setting": "DLD-1 colon", "value": "> 100", "unit": "µM"}, {"measurement": "TGI", "setting": "KM20L2 colon", "value": "> 100", "unit": "µM"}]}
{"smiles": "CN(C)C(=S)Nc1nnc(Nc2ccccc2)s1", "values": [{"measurement": "TGI", "setting": "HOP-18 NSCLC", "value": "> 100", "unit": "µM"}, {"measurement": "TGI", "setting": "RXF-631 renal", "value": "> 100", "unit": "µM"}, {"measurement": "TGI", "setting": "M19-MEL melanoma", "value": "> 100", "unit": "µM"}, {"measurement": "TGI", "setting": "DLD-1 colon", "value": "> 100", "unit": "µM"}, {"measurement": "TGI", "setting": "KM20L2 colon", "value": "> 100", "unit": "µM"}]}
